Data published in ChEMBL document CHEMBL4507298 (2021).

Legend:
[1] = target: Bone morphogenetic protein receptor type-1B (Homo sapiens) (UniProt O00238); details: Compound concentration 1000.0 nM
[2] = target: Ribosomal protein S6 kinase alpha-6 (Homo sapiens) (UniProt Q9UK32); details: Compound concentration 1000.0 nM
[3] = target: Serine/threonine-protein kinase 36 (Homo sapiens) (UniProt Q9NRP7); details: Compound concentration 1000.0 nM
[4] = target: Serine/threonine-protein kinase MRCK gamma (Homo sapiens) (UniProt Q6DT37); details: Compound concentration 1000.0 nM
[5] = target: T1, Muscarinic acetylcholine receptor M2 (Homo sapiens) (UniProt P08172); assay: M2 (h) CEREP ligand profiling; details: Compound concentration 10.0 uM
T1 sequence (whole entry): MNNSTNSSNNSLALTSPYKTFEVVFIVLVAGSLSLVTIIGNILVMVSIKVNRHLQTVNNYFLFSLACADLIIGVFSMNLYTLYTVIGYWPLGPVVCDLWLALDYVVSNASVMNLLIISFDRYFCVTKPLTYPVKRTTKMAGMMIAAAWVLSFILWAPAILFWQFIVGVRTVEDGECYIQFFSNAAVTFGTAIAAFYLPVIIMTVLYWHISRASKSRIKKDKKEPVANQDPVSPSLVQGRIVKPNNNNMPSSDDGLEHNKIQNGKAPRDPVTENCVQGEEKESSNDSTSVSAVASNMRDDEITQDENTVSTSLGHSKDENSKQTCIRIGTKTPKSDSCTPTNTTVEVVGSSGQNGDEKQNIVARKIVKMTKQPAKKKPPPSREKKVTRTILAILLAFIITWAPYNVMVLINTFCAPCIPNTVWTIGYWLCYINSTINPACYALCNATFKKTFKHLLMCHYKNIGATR

[6] = target: LIM domain kinase 2 (Homo sapiens) (UniProt P53671); details: Compound concentration 1000.0 nM
[7] = target: NT-3 growth factor receptor (Homo sapiens) (UniProt Q16288); details: Compound concentration 1000.0 nM
Chain of NT-3 growth factor receptor (Homo sapiens) (Q16288 32-839 limits assumed): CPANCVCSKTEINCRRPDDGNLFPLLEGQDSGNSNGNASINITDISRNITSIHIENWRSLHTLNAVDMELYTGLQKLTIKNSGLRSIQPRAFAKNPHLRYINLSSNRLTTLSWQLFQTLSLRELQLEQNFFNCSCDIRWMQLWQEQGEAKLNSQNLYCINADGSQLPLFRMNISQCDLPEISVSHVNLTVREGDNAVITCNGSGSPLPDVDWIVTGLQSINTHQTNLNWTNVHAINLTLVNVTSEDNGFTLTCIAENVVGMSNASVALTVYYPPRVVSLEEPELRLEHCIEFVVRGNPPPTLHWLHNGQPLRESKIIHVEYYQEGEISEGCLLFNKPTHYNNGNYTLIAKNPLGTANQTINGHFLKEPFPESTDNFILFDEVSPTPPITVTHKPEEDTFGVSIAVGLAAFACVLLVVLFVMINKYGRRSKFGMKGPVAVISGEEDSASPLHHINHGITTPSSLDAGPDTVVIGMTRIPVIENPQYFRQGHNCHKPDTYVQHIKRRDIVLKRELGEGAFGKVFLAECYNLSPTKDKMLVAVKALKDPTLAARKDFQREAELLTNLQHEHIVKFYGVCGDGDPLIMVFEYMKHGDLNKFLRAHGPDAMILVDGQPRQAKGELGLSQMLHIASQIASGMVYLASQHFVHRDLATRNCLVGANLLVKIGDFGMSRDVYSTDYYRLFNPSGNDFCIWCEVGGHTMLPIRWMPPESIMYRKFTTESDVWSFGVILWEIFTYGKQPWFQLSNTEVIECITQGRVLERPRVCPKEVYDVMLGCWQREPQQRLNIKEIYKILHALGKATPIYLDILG

[8] = test system: Epidermal growth factor receptor (Homo sapiens), P00533 [UNDEFINED MUTATION]; details: Compound concentration 1000.0 nM
[9] = target: Serine/threonine-protein kinase 38-like (Homo sapiens) (UniProt Q9Y2H1); details: Compound concentration 1000.0 nM
[10] = target: Prostaglandin F2-alpha receptor (Homo sapiens, UniProt P43088); assay: Binding assay (PTGFR)
[11] = target: 5'-AMP-activated protein kinase catalytic subunit alpha-2 (Homo sapiens) (UniProt P54646); details: Compound concentration 1000.0 nM
Chain of 5'-AMP-activated protein kinase catalytic subunit alpha-2 (Homo sapiens) (P54646 whole entry, looked up): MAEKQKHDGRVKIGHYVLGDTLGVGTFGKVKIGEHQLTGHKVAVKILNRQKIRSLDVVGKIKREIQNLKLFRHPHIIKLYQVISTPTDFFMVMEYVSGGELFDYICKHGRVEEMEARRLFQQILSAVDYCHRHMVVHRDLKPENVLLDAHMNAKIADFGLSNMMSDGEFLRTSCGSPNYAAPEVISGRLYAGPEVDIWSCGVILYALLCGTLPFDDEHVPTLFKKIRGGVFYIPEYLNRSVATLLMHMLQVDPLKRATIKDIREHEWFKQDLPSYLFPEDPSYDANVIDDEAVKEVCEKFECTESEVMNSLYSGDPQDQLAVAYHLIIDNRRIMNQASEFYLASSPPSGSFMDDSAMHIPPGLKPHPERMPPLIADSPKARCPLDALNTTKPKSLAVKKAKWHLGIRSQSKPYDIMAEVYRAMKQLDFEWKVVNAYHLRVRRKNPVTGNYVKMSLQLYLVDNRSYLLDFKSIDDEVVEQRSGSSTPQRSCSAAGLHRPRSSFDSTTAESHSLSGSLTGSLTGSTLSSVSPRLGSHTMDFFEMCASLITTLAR

[12] = target: Cytoplasmic tyrosine-protein kinase BMX (Homo sapiens) (UniProt P51813); details: Compound concentration 1000.0 nM
[13] = target: Neuropeptide Y receptor type 1 (Homo sapiens) (UniProt P25929); assay: Y1 (h) CEREP ligand profiling; details: Compound concentration 10.0 uM
[14] = target: Tyrosine-protein kinase Mer (Homo sapiens) (UniProt Q12866); details: Compound concentration 1000.0 nM
[15] = target: Ribosomal protein S6 kinase alpha-6 (Homo sapiens) (UniProt Q9UK32); details: Compound concentration 1000.0 nM; remark: listed apart in the source
[16] = target: GABA-A receptor; anion channel (Homo sapiens) (UniProt P14867+P47870+P18507+P28472+P48169+Q99928+Q9UN88+P34903+O00591+O14764+Q8N1C3+P18505+P78334+P47869+P31644+Q16445); assay: GABAA CEREP ligand profiling; format: protein-complex assay; details: Compound concentration 10.0 uM
[17] = target: Voltage-gated L-type calcium channel (diltiazem site) (Homo sapiens, UniProt O60840+Q01668+Q13698+Q13936); assay: Ca2+ channel (L, diltiazem site) CEREP ligand profiling; format: protein assay; details: compound concentration 10 uM
[18] = target: Serine/threonine-protein kinase Chk1 (Homo sapiens) (UniProt O14757); details: Compound concentration 1000.0 nM
Chain of Serine/threonine-protein kinase Chk1 (Homo sapiens) (O14757 whole entry): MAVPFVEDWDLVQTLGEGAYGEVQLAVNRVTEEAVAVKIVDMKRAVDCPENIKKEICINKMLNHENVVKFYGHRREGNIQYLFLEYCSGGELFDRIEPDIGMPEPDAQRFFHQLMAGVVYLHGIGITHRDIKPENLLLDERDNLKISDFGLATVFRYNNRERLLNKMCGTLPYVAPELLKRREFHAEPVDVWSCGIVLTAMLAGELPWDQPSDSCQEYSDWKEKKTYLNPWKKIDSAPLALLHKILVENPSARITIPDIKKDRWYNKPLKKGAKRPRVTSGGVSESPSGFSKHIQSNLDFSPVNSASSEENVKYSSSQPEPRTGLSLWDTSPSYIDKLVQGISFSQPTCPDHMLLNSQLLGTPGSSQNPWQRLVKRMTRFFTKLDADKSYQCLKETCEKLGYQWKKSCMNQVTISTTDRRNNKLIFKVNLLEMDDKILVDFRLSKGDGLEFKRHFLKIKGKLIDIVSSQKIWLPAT

[19] = target: Insulin receptor (Homo sapiens) (UniProt P06213); details: Compound concentration 1000.0 nM
[20] = test system: Phosphatidylinositol 4,5-bisphosphate 3-kinase catalytic subunit alpha isoform (Homo sapiens), P42336 [E542K]; details: Compound concentration 1000.0 nM
[21] = test system: Tyrosine-protein kinase ABL1 (Homo sapiens), P00519 [T315I]; details: Compound concentration 1000.0 nM
[22] = target: Serine/threonine-protein kinase 17A (Homo sapiens) (UniProt Q9UEE5); details: Compound concentration 1000.0 nM
[23] = test system: Receptor-type tyrosine-protein kinase FLT3 (Homo sapiens), P36888 [D835H]; details: Compound concentration 1000.0 nM
[24] = target: Serine/threonine-protein kinase D3 (Homo sapiens) (UniProt O94806); details: Compound concentration 1000.0 nM
[25] = target: Tyrosine-protein kinase JAK1 (Homo sapiens) (UniProt P23458); details: Compound concentration 1000.0 nM
[26] = target: Serine/threonine-protein kinase WNK2 (Homo sapiens) (UniProt Q9Y3S1); details: Compound concentration 1000.0 nM
[27] = target: NUAK family SNF1-like kinase 1 (Homo sapiens) (UniProt O60285); details: Compound concentration 1000.0 nM
[28] = target: Serine/threonine-protein kinase NLK (Homo sapiens) (UniProt Q9UBE8); details: Compound concentration 1000.0 nM
[29] = target: Rhodopsin kinase GRK7 (Homo sapiens) (UniProt Q8WTQ7); details: Compound concentration 1000.0 nM
Chain of Rhodopsin kinase GRK7 (Homo sapiens) (Q8WTQ7 whole entry): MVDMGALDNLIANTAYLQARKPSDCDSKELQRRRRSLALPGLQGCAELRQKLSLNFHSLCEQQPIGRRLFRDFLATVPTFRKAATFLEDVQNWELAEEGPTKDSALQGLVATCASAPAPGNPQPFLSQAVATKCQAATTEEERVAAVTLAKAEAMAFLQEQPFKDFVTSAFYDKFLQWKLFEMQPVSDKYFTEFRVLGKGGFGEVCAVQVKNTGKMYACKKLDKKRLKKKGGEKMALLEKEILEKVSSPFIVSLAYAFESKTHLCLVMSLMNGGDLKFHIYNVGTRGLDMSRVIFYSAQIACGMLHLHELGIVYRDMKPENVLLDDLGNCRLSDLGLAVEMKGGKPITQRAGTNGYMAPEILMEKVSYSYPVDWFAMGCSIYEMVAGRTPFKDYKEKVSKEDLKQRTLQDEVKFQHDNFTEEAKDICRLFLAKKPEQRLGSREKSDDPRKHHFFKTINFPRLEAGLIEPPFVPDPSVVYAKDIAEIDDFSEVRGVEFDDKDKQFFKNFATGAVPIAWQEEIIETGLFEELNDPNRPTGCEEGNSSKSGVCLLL

[30] = target: Receptor-interacting serine/threonine-protein kinase 4 (Homo sapiens) (UniProt P57078); details: Compound concentration 1000.0 nM
[31] = target: Inhibitor of nuclear factor kappa-B kinase subunit epsilon (Homo sapiens) (UniProt Q14164); details: Compound concentration 1000.0 nM
[32] = target: Serine/threonine-protein kinase Nek4 (Homo sapiens) (UniProt P51957); details: Compound concentration 1000.0 nM
[33] = target: Mitogen-activated protein kinase kinase kinase 5 (Homo sapiens) (UniProt Q99683); details: Compound concentration 1000.0 nM
[34] = target: Beta-1 adrenergic receptor (Homo sapiens) (UniProt P08588); assay: beta 1 (h) CEREP ligand profiling; details: Compound concentration 10.0 uM
Chain of Beta-1 adrenergic receptor (Homo sapiens) (P08588 whole entry, looked up): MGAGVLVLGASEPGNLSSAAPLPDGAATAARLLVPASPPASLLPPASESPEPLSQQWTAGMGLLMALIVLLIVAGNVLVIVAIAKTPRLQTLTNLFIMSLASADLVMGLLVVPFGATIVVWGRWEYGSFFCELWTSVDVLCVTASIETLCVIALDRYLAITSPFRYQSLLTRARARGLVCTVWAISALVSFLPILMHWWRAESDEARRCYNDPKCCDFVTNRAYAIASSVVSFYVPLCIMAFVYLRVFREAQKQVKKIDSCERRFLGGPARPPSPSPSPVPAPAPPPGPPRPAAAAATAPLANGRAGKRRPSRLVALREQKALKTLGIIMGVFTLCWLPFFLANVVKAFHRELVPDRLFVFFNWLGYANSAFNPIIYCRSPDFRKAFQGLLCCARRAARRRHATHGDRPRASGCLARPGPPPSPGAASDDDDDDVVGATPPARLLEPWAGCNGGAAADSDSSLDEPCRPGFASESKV

[35] = target: Serine/threonine-protein kinase D2 (Homo sapiens) (UniProt Q9BZL6); details: Compound concentration 1000.0 nM
[36] = target: Mitogen-activated protein kinase 1 (Homo sapiens) (UniProt P28482); details: Compound concentration 1000.0 nM
[37] = target: Beta-1 adrenergic receptor (Homo sapiens) (UniProt P08588); details: Compound concentration 10.0 uM

Chain of Ribosomal protein S6 kinase alpha-6 (Homo sapiens) (Q9UK32 whole entry): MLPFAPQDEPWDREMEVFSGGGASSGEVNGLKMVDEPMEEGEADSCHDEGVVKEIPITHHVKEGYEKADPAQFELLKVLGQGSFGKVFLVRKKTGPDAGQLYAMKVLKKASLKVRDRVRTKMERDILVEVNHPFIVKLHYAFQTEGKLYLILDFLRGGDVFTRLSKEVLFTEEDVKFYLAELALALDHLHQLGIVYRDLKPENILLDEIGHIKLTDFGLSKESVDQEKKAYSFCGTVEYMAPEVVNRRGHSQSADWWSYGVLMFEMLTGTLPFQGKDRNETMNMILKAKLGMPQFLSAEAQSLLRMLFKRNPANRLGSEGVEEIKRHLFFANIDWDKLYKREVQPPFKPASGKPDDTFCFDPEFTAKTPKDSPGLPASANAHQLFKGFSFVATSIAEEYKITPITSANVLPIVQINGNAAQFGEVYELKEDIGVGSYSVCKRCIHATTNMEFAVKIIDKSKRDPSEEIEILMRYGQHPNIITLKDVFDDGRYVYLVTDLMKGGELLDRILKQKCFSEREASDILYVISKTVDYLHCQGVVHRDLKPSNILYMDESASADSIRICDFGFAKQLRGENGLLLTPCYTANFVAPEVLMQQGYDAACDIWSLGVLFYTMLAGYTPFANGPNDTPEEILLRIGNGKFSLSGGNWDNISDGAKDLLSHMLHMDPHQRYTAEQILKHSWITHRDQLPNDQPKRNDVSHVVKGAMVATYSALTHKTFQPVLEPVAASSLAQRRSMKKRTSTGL
Chain of Serine/threonine-protein kinase 36 (Homo sapiens) (Q9NRP7 whole entry): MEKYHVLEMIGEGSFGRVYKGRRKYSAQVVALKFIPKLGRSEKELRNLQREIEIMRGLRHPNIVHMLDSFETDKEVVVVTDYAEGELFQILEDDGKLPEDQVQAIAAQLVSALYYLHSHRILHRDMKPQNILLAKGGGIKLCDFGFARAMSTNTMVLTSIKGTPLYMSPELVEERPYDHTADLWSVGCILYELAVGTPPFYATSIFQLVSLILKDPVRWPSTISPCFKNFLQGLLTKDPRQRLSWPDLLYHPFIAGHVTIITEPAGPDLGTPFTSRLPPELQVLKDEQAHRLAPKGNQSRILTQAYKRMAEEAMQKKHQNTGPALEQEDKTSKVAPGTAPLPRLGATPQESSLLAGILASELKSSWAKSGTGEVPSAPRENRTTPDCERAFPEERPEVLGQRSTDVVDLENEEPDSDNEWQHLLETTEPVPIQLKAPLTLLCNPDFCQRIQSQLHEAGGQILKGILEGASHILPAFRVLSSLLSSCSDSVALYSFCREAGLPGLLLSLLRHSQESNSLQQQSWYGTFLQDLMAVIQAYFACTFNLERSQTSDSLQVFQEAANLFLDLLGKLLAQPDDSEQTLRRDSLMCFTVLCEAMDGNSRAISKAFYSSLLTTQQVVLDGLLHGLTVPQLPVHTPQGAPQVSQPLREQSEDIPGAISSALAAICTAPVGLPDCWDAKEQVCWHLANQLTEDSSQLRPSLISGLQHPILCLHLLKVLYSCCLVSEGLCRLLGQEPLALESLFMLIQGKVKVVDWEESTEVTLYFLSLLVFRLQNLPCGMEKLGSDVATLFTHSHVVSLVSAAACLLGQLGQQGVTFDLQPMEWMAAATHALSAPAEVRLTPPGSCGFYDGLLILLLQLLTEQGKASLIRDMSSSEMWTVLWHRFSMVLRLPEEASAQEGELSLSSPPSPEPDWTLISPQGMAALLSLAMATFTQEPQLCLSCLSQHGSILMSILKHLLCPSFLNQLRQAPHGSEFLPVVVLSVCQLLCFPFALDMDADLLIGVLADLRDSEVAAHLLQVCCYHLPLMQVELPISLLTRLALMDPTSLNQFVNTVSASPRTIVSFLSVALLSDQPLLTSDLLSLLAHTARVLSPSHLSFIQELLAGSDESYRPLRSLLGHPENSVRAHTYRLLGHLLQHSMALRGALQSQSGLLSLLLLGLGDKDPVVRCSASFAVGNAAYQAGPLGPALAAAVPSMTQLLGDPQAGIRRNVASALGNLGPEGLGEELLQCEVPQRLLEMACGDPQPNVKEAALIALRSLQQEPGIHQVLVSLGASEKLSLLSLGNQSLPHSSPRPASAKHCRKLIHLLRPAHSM

Which results are given for `COc1ccc2cc(OCC3(C(=O)O)CN(C(=O)c4ccc(F)cc4)C3)ccc2c1` [PF-04418948]?
residual activity [1]: 95%; residual activity [2]: 78%; residual activity [3]: 89%; residual activity [4]: 91%; inhibition [5]: 1%; residual activity [6]: 90%; residual activity [7]: 98%; residual activity [8]: 87%; residual activity [9]: 86%; Ki [10]: > 10 µM (not active); residual activity [11]: 28%; residual activity [12]: 87%; inhibition [13]: 1%; residual activity [14]: 80%; residual activity [15]: 77%; inhibition [16]: 16%; inhibition at 10 µM [17]: 6% (not active); residual activity [18]: 87%; residual activity [19]: 93%; residual activity [20]: 50%; residual activity [21]: 84%; residual activity [22]: 81%; residual activity [23]: 71%; residual activity [24]: 91%; residual activity [25]: 93%; residual activity [26]: 84%; residual activity [27]: 94%; residual activity [28]: 94%; residual activity [29]: 93%; residual activity [30]: 66%; residual activity [31]: 95%; residual activity [32]: 94%; residual activity [33]: 98%; inhibition [34]: 9%; residual activity [35]: 93%; residual activity [36]: 97%

How did the inhibition [37] turn out when `O=C(c1ccc(F)cc1)N1CC(COc2ccc(Br)cc2)(C(=O)O)C1` [PF-04475866] was run?
Its inhibition is -6.66%.
